In paper PMC10746708, “A small molecule iCDM-34 identified by in silico screening suppresses HBV DNA through activation of aryl hydrocarbon receptor” (Cell Death Discovery, 2023):

How the values were obtained:
HBV genotype C [1] = assay: Anti-HBV activity in HBV-infected PXB cells (HBV DNA by qPCR); format: cell-based
Description: PXB cells (primary cultured human hepatocytes) were purchased from PhoenixBio (Higashi-Hiroshima, Japan) and cultured on collagen type I-coated 96- or 24-well plates in hepatocyte clonal growth medium at 37 °C and 5 % CO2 as previously described. RealTime-Glo MT Cell Viability Assay (Promega) and XTT assay were performed according to a previously established protocol.
PXB cells were plated on 96-well plate and infected with three genome equivalents per cell of HBV C_AT [33], and the medium was changed every 3 or 4 days. […] After treatment with these compounds, cellular DNA, medium DNA, and total RNA were automatically purified as per our previously established protocol. RNA purification of total RNA from cultured cells in the 24-well plate was performed using the RNeasy Mini Kit (Qiagen, Germantown, MD, USA) according to the manufacturer’s instructions.
HBV DNA copy numbers were determined using TaqMan Gene Expression Master Mix (Thermo Fisher Scientific) or Probe qPCR Mix (Takara Bio), specific primers, and probes in a qPCR system (Light Cycler 96 System, Roche, Basel, Switzerland or CFX96 Touch Real-Time PCR Detection System, Bio-Rad Laboratories, Hercules, CA, USA). The specific primers and probe used for detection of HBV DNA were as follows: forward primer: 5′-[…]-3′, reverse primer: 5′-[…]-3′, and probe: 5′-[FAM] […][TAM]-3′.

HCV replicon cells [2] = assay: HCV replicon luciferase assay; format: cell-based; details: 0.05–30 µM, 3 days
Description: HCV replicon cells were plated on clear and white 96-well plates (TPP, 92096 and Greiner Bio-one, 655083) in DMEM, high glucose, GlutaMAX Supplement (Thermo Fisher Scientific, Waltham, MA, USA) containing 10 % fetal bovine serum, penicillin, and streptomycin. After 1 day, the cells were treated with 0.05–30 µM of iCDM-17 and iCDM-34 for 3 days. The quantity of HCV replicons was measured by a luciferase assay using Steady-Glo Luciferase Assay System (Promega, Madison, WI, USA). The cell viability was measured by XTT assay using Cell proliferation kit II (Roche, Mannheim, Germany) according to the established protocol.

[3] = Liver microsomal stability, human; format: in vitro ADME; details: human liver microsomes
Description: (§1) Liver microsome stability studies (human, mouse, and rat) were performed at Sumika Chemical Analysis Service (Osaka, Japan) by following an established procedure. A mixture of 1 μM of substrate, 0.5 mg protein/mL of microsomes, and […] β-NADPH was incubated for 30 or 60 min and % remaining substrate was quantitatively measured by LC-MS/MS.

[4] = Liver microsomal stability, rat; format: in vitro ADME; details: rat liver microsomes
Description: as §1

HBV genotype C [5] = assay: Anti-HBV activity in human hepatocyte-chimeric mice (liver HBV DNA); format: in vivo, human hepatocyte-chimeric mice (PXB-mice); details: 21 days
Description: PXB-mice (human liver chimeric cDNA-uPA^wild/+/SCID male mice) were generated by PhoenixBio. HBV genotype C was then inoculated into the mice via i.v.. After attaining 1.2 × 10^8–3.5 × 10^8 copies/mL of the serum HBV DNA levels, vehicle (10% 2-hydroxypropyl-beta-cyclodextrin and 10% polyethylene glycol 300) or 1 mg/kg iCDM-34 was i.v. injected with or without administration of 0.03 mg/kg ETV orally once a day for 21 days (n = 4). DNA was purified from the liver and its concentration was measured using NanoDrop Spectrophotometer (Thermo Fisher Scientific), followed by measurement of HBV DNA levels by qPCR according to a previously established method. The experimental procedures using the PXB-mice was approved by the Animal Ethics Committee of PhoenixBio.

CDK1/2 = CDK1/2 mRNA qPCR in HepG2-NTCP-C4 cells; format: cell-based, human; details: 30 μM
Description: HepG2-NTCP-C4 cells were plated on a 96-well plate in DMEM/F12 and GlutaMAX Supplement (Thermo Fisher Scientific) containing 10% fetal bovine serum, 10 mM HEPES, 5 μg/ml insulin, […] hydrocortisone, 200 U/ml penicillin, and 200 μg/ml streptomycin. After 1 day, the cells were treated with 30 μM iCDM-17 and iCDM-34 for 3, 8, 24 h. Total RNA was purified form the cells using Agencourt RNA advance (Beckman Courter). cDNA was synthesized using PrimeScript RT master mix (Takara Bio). CDK1, CDK2, β-actin mRNA amount was quantified by qPCR.
mRNA expression levels were measured by qPCR using specific primers or sets of specific primers and probe. RNA was reverse transcribed using PrimeScript RT Master Mix (Takara Bio, Shiga, Japan) to synthesize complementary DNA (cDNA). OAS1,glyceraldehyde 3-phosphate dehydrogenase (GAPDH), β-actin mRNA expression levels were measured using specific primers and TB Green Premix Ex Taq II (Takara Bio). AhR (Hs00169233_m), CDK1 (Hs00938777_m), CDK2 (Hs01548894_m) mRNA expression levels were measured using specific probe and primer sets (Thermo Fisher Scientific, Waltham, MA, USA) and Probe qPCR mix (Takara Bio) in a CFX96 Touch Real-Time PCR Detection System (Bio-Rad Laboratories, Hercules, CA, USA). […] Expression levels were determined using the 2^–ΔΔCt method and were normalized to endogenous β-actin mRNA expression levels.

HCV replicon cells [6] = assay: AhR knockdown in HCV replicon cells, luciferase assay; format: cell-based; details: 30 μM, 2 days
Description: For knockdown of AhR in the HCV replicon cells, 2 ×10^4 cells of HCV replicon cells were mixed with AhR siRNA (siGENOME Human AHR siRNA – Smart pool, Horizon Discovery, Cambridgeshire, United Kingdom) and X-tremeGene 360 transfection reagent (Roche) and plated on 96 well plates. After 2 days of knockdown, the cells were treated with 30 μM iCDM-17, iCDM-34, and CDM-3008 for 2 days. The quantity of HCV replicons and cell viability were measured. The cellular RNA was purified using Agencourt RNAdvance (Beckman Coulter, San Jose, CA) and reverse-transcribed using PrimeScript RT master mix (Takara Bio, Kusatsu, Japan) to measure amount of AhR and β-actin mRNAs by quantitative PCR.

[7] = 1 μM substrate, 0.5 mg protein/mL, 30 min
[8] = 1 μM substrate, 0.5 mg protein/mL, 60 min

Q: Which results are given for `O=C(Nc1ccc(Br)cc1)c1ccn(Cn2cc([N+](=O)[O-])cn2)n1` [iCDM-34]?
A: medium HBV DNA (HBV genotype C [1]; 30 µM, 7 days): inhibited; effect of combination with ETV on cellular HBV DNA (HBV genotype C [1]; 3 and 30 µM with 10 nM ETV, 7 days): additive effects; cellular HBV DNA (HBV genotype C [1]; 3 and 30 µM, 7 days, dose-dependent): decreased; IC50 (HBV genotype C [1]; Hepatitis B virus, 168 h, HBV genotype C-infected PXB cells, 0.03–100 µM for 7 days, qPCR, read-out: half maximal inhibitory concentration, cellular HBV DNA): 19.7 µM; HCV replication (replicon luciferase) (HCV replicon cells [2]): suppressed; half-life at 1 μM [3]: 8.43 h; remaining at 0.5 h, 1 μM [3, 7]: 96.2 ± 3.2%; remaining at 1 h, 1 μM [3, 8]: 94.1 ± 3.3%; half-life at 1 μM [4]: 3.32 h; remaining at 0.5 h, 1 μM [4, 7]: 90.2 ± 0.5%; remaining at 1 h, 1 μM [4, 8]: 85.2 ± 0.3%; HBV DNA in the liver, single agent (HBV genotype C [5]; 1 mg/kg i.v. once a day, alone): did not reduce; HBV DNA in the liver, combination with ETV compared with ETV alone (HBV genotype C [5]; 1 mg/kg i.v. plus ETV 0.03 mg/kg p.o. once a day): drastically suppressed; CDK2 mRNA expression levels (CDK1/2; after 3 and 8 h): significantly suppressed; CDK1 mRNA levels (CDK1/2; after 8 and 24 h): significant suppression; anti-HCV activity (HCV replicon RNA) with AhR siRNA (HCV replicon cells [6]; AhR siRNA): not present; anti-HCV activity (HCV replicon RNA) with control siRNA (HCV replicon cells [6]; control siRNA): significant anti-HCV activity
